# Data reported in patent US12612465B2, “Formulations comprising PCSK9 specific monoclonal antibodies” (Amgen Inc., priority 2012, dated 2026).
# Biological target: PCSK9 (Homo sapiens, UniProt Q8NBP7)
# Assay: 12 week monotherapy dose-ranging study, Framingham risk 10% or less (Example 24)
# Type: in vivo
# Design: endogenous in cells; host or cells: human subjects, in vivo
# Description: Ezetimibe was not blinded. The end-of-study visit and the last estimation of lipids was at week 12 for subjects on Q4W IP schedule or on ezetimibe and week 14 for subjects on Q2W IP schedule.
# Males and females, ≥18 to ≤75 years of age, were eligible for this study. Fasting LDL-C was ≥100 mg/dL (2.6 mmol/L) and ≤190 mg/dL (4.9 mmol/L) and fasting triglycerides ≤400 mg/dL (4.5 mmol/L) by central laboratory at screening.
# The primary endpoint was the percent change from baseline in LDL-C at week 12. Secondary endpoints included percent changes in apolipoprotein B (ApoB), lipoprotein (a) (Lp(a)), and in the ratio of total cholesterol to high-density lipoprotein (HDL)-C. Tolerability and safety were also evaluated.
# Sequence of PCSK9 (Q8NBP7 153-692): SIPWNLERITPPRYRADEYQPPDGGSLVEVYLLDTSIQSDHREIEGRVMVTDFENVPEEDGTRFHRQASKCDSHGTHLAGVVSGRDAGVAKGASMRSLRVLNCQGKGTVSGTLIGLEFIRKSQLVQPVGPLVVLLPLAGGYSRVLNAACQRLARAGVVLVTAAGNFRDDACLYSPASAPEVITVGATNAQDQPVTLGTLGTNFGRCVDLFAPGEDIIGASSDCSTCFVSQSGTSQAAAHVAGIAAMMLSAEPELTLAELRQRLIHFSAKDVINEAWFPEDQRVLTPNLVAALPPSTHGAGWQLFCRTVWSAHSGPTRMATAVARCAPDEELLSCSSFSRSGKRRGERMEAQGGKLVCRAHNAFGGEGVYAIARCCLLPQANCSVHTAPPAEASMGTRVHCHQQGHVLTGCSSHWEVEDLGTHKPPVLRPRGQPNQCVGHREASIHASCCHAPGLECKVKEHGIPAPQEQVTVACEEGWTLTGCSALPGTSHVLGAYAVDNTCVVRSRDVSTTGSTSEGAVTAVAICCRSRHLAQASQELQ
compound,measurement,setting,value
"O=C1[C@H](CC[C@H](O)c2ccc(F)cc2)[C@@H](c2ccc(O)cc2)N1c1ccc(F)cc1 [Ezetimibe, ezetimibe, reference compound]","Least squares mean percent change from baseline in LDL-C, week 12",Ezetimibe QD (N = 45),−14.26%
same,percent change from baseline in LDL-C,"ezetimibe QD PO, week 12, final data",14%
